From PubChem BioAssay AID330 (DTP/NCI, 2004)
Values joined by “and” are separate entries in the source; they are usually repeats but may differ in a detail not shown here. Equal values may be shown once. Inconclusive results and toxic doses are left out. Rule for the calls: active = survival T/C of 150% or more; inactive = T/C below 125% in these data.

System: P388 leukemia ip, CD2F1 mice, survival T/C
Assay: NCI In Vivo Anticancer Drug Screen. Data for tumor model P388 Leukemia (intraperitoneal) in CD2F1 (CDF1) mice
Conditions: endpoint: median survival time, higher = longer survival
Summary of the method: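 Mice carrying the transplanted tumor received test compound or vehicle. Survival was recorded in each group, and the value is the treated-group measurement divided by that of the vehicle-treated control group.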

[1] = dose: 12.5 mg/kg/injection, schedule: Q01DX009 (ip), vehicle: Klucel (hydroxypropylcellulose) (HPC)
[2] = dose: 50.0 mg/kg/injection, schedule: Q01DX005 (ip), vehicle: saline with Tween-80
[3] = dose: 100.0 mg/kg/injection, schedule: Q01DX005 (ip), vehicle: saline with Tween-80
[4] = dose: 200.0 mg/kg/injection, schedule: Q01DX005 (ip), vehicle: saline with Tween-80
[5] = dose: 100.0 mg/kg/injection, schedule: Q01DX001 (ip), vehicle: saline with Tween-80
[6] = dose: 200.0 mg/kg/injection, schedule: Q01DX001 (ip), vehicle: saline with Tween-80
[7] = dose: 50.0 mg/kg/injection, schedule: Q01DX009 (ip), vehicle: suspension in saline
[8] = dose: 60.0 mg/kg/injection, schedule: Q01DX005 (ip), vehicle: saline with Tween-80
[9] = dose: 120.0 mg/kg/injection, schedule: Q01DX005 (ip), vehicle: saline with Tween-80
[10] = dose: 240.0 mg/kg/injection, schedule: Q01DX005 (ip), vehicle: saline with Tween-80
[11] = dose: 200.0 mg/kg/injection, schedule: Q04DX003 (ip), vehicle: Klucel (hydroxypropylcellulose) (HPC)
[12] = dose: 100.0 mg/kg/injection, schedule: Q01DX001 (ip), vehicle: Klucel (hydroxypropylcellulose) (HPC)
[13] = dose: 200.0 mg/kg/injection, schedule: Q01DX001 (ip), vehicle: Klucel (hydroxypropylcellulose) (HPC)
[14] = dose: 12.5 mg/kg/injection, schedule: Q01DX009 (ip), vehicle: saline
[15] = dose: 25.0 mg/kg/injection, schedule: Q01DX009 (ip), vehicle: saline
[16] = dose: 50.0 mg/kg/injection, schedule: Q01DX009 (ip), vehicle: saline
[17] = dose: 50.0 mg/kg/injection, schedule: Q01DX005 (ip), vehicle: Klucel (hydroxypropylcellulose) (HPC)
[18] = dose: 100.0 mg/kg/injection, schedule: Q01DX005 (ip), vehicle: Klucel (hydroxypropylcellulose) (HPC)
[19] = dose: 200.0 mg/kg/injection, schedule: Q01DX005 (ip), vehicle: Klucel (hydroxypropylcellulose) (HPC)

Measured: T/C

Oc1ccc(/C=N/NC(=S)NN2CCOCC2)nc1
inactive: dose: 3.12 mg/kg/injection, schedule: Q01DX009 (ip), vehicle: Klucel (hydroxypropylcellulose) (HPC) 110 % of control | dose: 6.25 mg/kg/injection, schedule: Q01DX009 (ip), vehicle: Klucel (hydroxypropylcellulose) (HPC) 109 % of control | [1] 104 % of control | dose: 25.0 mg/kg/injection, schedule: Q01DX009 (ip), vehicle: Klucel (hydroxypropylcellulose) (HPC) 111 % of control

Cc1ccc(S(=O)(=O)N/N=C2\CC/C(=N\NS(=O)(=O)c3ccc(C)cc3)[C@@H]3CC=CC[C@H]23)cc1
inactive: [2] 92 % of control | [3] 92 % of control | [4] 89 % of control

NNC(=S)Nc1ccccc1
inactive: dose: 1.25 mg/kg/injection, schedule: Q01DX009 (ip), vehicle: saline with Tween-80 104 % of control | dose: 2.5 mg/kg/injection, schedule: Q01DX009 (ip), vehicle: saline with Tween-80 100 % of control | dose: 5.0 mg/kg/injection, schedule: Q01DX009 (ip), vehicle: saline with Tween-80 95 % of control

CCN(CC)C(=O)c1cc2c(=O)c3c(ccc4ccccc43)oc2n(C)c1=O
inactive: [2] 98 % of control | [3] 90 % of control | [4] 90 % of control

CCCCC/C(=N\Nc1ccc([N+](=O)[O-])cc1[N+](=O)[O-])c1ccccc1
inactive: dose: 50.0 mg/kg/injection, schedule: Q01DX001 (ip), vehicle: saline with Tween-80 105 % of control | [5] 95 % of control | [6] 95 % of control

Nc1nc(N)nc(-c2ccccc2)n1
inactive: [7] 106 % of control | dose: 100.0 mg/kg/injection, schedule: Q01DX009 (ip), vehicle: suspension in saline 99 % of control | dose: 200.0 mg/kg/injection, schedule: Q01DX009 (ip), vehicle: suspension in saline 106 % of control

C[As](C)SCCC(N)C(=O)NC(CCS[As](C)C)C(=O)O (stereo not given)
inactive: [1] 110 % of control

N#CNC1=NC(c2ccccc2)CC=C1 (stereo not given)
inactive: dose: 50.0 mg/kg/injection, schedule: Q01DX009 (ip), vehicle: saline with Tween-80 102 % of control | dose: 100.0 mg/kg/injection, schedule: Q01DX009 (ip), vehicle: saline with Tween-80 113 % of control

CC1(C)CC(=O)C(C(c2ccc3c(c2)OCO3)N2CCOCC2)C(=O)C1 (stereo not given)
inactive: dose: 60.0 mg/kg/injection, schedule: Q01DX005 (ip), vehicle: Klucel (hydroxypropylcellulose) (HPC) 117 % of control | dose: 120.0 mg/kg/injection, schedule: Q01DX005 (ip), vehicle: Klucel (hydroxypropylcellulose) (HPC) 109 % of control

O=C1C(=O)N(c2ccc([N+](=O)[O-])cc2)C(=O)N1c1ccc([N+](=O)[O-])cc1
inactive: [8] 112 % of control | [9] 95 % of control | [10] 95 % of control

Cc1ccc(S(=O)(=O)F)c(Cl)c1
inactive: dose: 100.0 mg/kg/injection, schedule: Q04DX003 (ip), vehicle: Klucel (hydroxypropylcellulose) (HPC) 95 % of control | [11] 119 % of control | dose: 400.0 mg/kg/injection, schedule: Q04DX003 (ip), vehicle: Klucel (hydroxypropylcellulose) (HPC) 103 % of control

O=c1c(N=Nc2ccccc2Cl)c(O)n(-c2ccccc2Cl)c(=S)n1-c1ccc(Cl)cc1
inactive: [12] 109 % of control | [13] 104 % of control | dose: 400.0 mg/kg/injection, schedule: Q01DX001 (ip), vehicle: Klucel (hydroxypropylcellulose) (HPC) 96 % of control

Nc1cc(Nc2cccc(Cl)c2)nc(N)n1
inactive: dose: 50.0 mg/kg/injection, schedule: Q04DX003 (ip), vehicle: saline with Tween-80 87 % of control | dose: 100.0 mg/kg/injection, schedule: Q04DX003 (ip), vehicle: saline with Tween-80 91 % of control

O=C(O)c1nn(Cc2ccc(Br)cc2Br)c2ccccc12
inactive: [5] 114 % of control | [6] 104 % of control | dose: 400.0 mg/kg/injection, schedule: Q01DX001 (ip), vehicle: saline with Tween-80 114 % of control

CCCCCCCCCCCCCCC[N+]1([O-])CCCCC1
inactive: [14] 101 % of control | [15] 95 % of control | [16] 99 % of control and 101 % of control

CC1=CC(=O)[C@@H](O)[C@]2(C)[C@H]3[C@@H](O)[C@H](O)[C@@](C)(O)[C@@H]4[C@@H](O)C(=O)O[C@H](C[C@@H]12)[C@]34C
inactive: dose: 1.0 mg/kg/injection, schedule: Q01DX009 (ip), vehicle: saline + alcohol 99 % of control | dose: 2.0 mg/kg/injection, schedule: Q01DX009 (ip), vehicle: saline + alcohol 101 % of control | dose: 4.0 mg/kg/injection, schedule: Q01DX009 (ip), vehicle: saline + alcohol 99 % of control | dose: 8.0 mg/kg/injection, schedule: Q01DX009 (ip), vehicle: saline + alcohol 99 % of control

CN(C)CCn1ncc(Sc2cc([N+](=O)[O-])ccc2N)c(Cl)c1=O
inactive: [8] 103 % of control | [9] 96 % of control | [10] 97 % of control

Cc1nc2ccccc2c(=O)n1/N=C1/C(=O)Nc2ccc(Br)cc21
inactive: dose: 12.5 mg/kg/injection, schedule: Q01DX005 (ip), vehicle: Klucel (hydroxypropylcellulose) (HPC) 96 % of control | dose: 25.0 mg/kg/injection, schedule: Q01DX005 (ip), vehicle: Klucel (hydroxypropylcellulose) (HPC) 96 % of control | [17] 88 % of control and 90 % of control | [18] 91 % of control | [19] 104 % of control

CCC(=O)NNc1cccc(Cl)n1
inactive: dose: 50.0 mg/kg/injection, schedule: Q01DX001 (ip), vehicle: Klucel (hydroxypropylcellulose) (HPC) 98 % of control | [12] 94 % of control | [13] 108 % of control

S=C(N/N=C/c1ccccn1)Nc1ccccn1
inactive: dose: 130.0 mg/kg/injection, schedule: Q04DX003 (ip), vehicle: Klucel (hydroxypropylcellulose) (HPC) 117 % of control | [11] 123 % of control | dose: 300.0 mg/kg/injection, schedule: Q04DX003 (ip), vehicle: Klucel (hydroxypropylcellulose) (HPC) 107 % of control

Cc1cc[n+](-c2nc3c([O-])n(C)c(=O)n(C)c-3n2)cc1
inactive: dose: 100.0 mg/kg/injection, schedule: Q04DX003 (ip), vehicle: saline 99 % of control | dose: 200.0 mg/kg/injection, schedule: Q04DX003 (ip), vehicle: saline 99 % of control | dose: 400.0 mg/kg/injection, schedule: Q04DX003 (ip), vehicle: saline 94 % of control

CC(C)(C)c1cc2c(O)c(c1)Cc1cc(C(C)(C)C)cc(c1O)Cc1cc(C(C)(C)C)cc(c1O)Cc1cc(C(C)(C)C)cc(c1O)Cc1cc(C(C)(C)C)cc(c1O)Cc1cc(C(C)(C)C)cc(c1O)C2
inactive: [17] 99 % of control | [18] 92 % of control | [19] 92 % of control

C[N+](C)(C)CCCSc1nc2ccccc2[nH]1
inactive: dose: 0.13 mg/kg/injection, schedule: Q01DX009 (ip), vehicle: saline 95 % of control | dose: 0.25 mg/kg/injection, schedule: Q01DX009 (ip), vehicle: saline 103 % of control | dose: 0.5 mg/kg/injection, schedule: Q01DX009 (ip), vehicle: saline 103 % of control | dose: 1.0 mg/kg/injection, schedule: Q01DX009 (ip), vehicle: saline 104 % of control

Cc1nsc(N)n1
inactive: dose: 6.25 mg/kg/injection, schedule: Q01DX009 (ip), vehicle: saline 100 % of control | dose: 6.25 mg/kg/injection, schedule: Q01DX009 (ip), vehicle: suspension in saline 94 % of control | [14] 100 % of control and 98 % of control | dose: 12.5 mg/kg/injection, schedule: Q01DX009 (ip), vehicle: suspension in saline 101 % of control | [15] 100 % of control and 98 % of control | dose: 25.0 mg/kg/injection, schedule: Q01DX009 (ip), vehicle: suspension in saline 102 % of control | [16] 99 % of control and 98 % of control | [7] 103 % of control

COC(=O)C1(CC(=O)C(C)(C)C)NC(=S)NC(=O)C1C#N (stereo not given)
inactive: dose: 60.0 mg/kg/injection, schedule: Q01DX005 (ip), vehicle: saline 107 % of control | dose: 120.0 mg/kg/injection, schedule: Q01DX005 (ip), vehicle: saline 101 % of control | dose: 240.0 mg/kg/injection, schedule: Q01DX005 (ip), vehicle: saline 97 % of control

Cc1ccc(Br)cc1CCO
inactive: [17] 98 % of control and 97 % of control | [18] 99 % of control and 100 % of control | [19] 100 % of control and 120 % of control

COc1ccc(Cc2nccc3cc(OC)c(OC)cc23)cc1OC
inactive: [14] 104 % of control | [16] 109 % of control
